ChEMBL document CHEMBL1150506, “S-nitrosation of proteins by N-methyl-N-nitrosoanilines” (Bioorg Med Chem Lett, 1996)

Columns and labels:
Papain = target: T1, Papain (Carica papaya, UniProt P00784); test: (§1) Pseudo-first order rate constant for inhibition of thiol-dependent papain enzyme
T1 sequence (P00784 whole entry): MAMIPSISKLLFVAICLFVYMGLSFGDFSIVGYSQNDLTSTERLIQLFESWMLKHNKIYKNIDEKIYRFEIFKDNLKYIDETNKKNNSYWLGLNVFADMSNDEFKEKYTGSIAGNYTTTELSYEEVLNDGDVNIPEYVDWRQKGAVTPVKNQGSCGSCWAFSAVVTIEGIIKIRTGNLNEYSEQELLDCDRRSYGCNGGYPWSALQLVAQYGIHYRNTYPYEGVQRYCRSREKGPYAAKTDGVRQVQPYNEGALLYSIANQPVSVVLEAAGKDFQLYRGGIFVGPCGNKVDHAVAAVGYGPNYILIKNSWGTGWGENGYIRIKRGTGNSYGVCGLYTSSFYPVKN

[1] = as §1

| SMILES | pseudo-first-order inhibition rate constant (Papain) | Ki [1] |
| --- | --- | --- |
| CN(N=O)c1ccc(Cl)cc1 | 0.017 min⁻¹ | – |
| CN(N=O)c1cc(O)ccc1O [DEPHOSTATIN] | – | 0.328 min⁻¹ |
| CN(C)c1ccc(N(C)N=O)cc1 | – | 0.243 min⁻¹ |
| CN(N=O)c1cccc(O)c1 | 0.036 min⁻¹ | – |
| CN(N=O)c1ccccc1[N+](=O)[O-] | 0.026 min⁻¹ | – |
| CN(N=O)c1ccccc1O | 0.011 min⁻¹ | – |
| CN(N=O)c1ccccc1 | 0.057 min⁻¹ | – |
| CN(N=O)c1ccc(O)cc1 | – | 0.009 min⁻¹ |
